Reference: ChEMBL document CHEMBL4808193, “[11]-Chaetoglobosins from Pseudeurotium bakeri Induce G2/M Cell Cycle Arrest and Apoptosis in Human Cancer Cells” (J Nat Prod, 2021)
pIC50: −log10 of the molar value.

How the values were obtained:
[1] = test system: A549; assay: Cytotoxicity against human A549 cells assessed as reduction in cell viability by MTT assay; assay type: functional, cell-based
[2] = test system: A-427; assay: Cytotoxicity against human A-427 cells assessed as reduction in cell viability by MTT assay; assay type: functional, cell-based
[3] = test system: HCT-116; assay: Cytotoxicity against human HCT-116 cells assessed as reduction in cell viability by MTT assay; assay type: functional, cell-based
[4] = test system: HT-29; assay: Cytotoxicity against human HT-29 cells assessed as reduction in cell viability by MTT assay; assay type: functional, cell-based
[5] = test system: MCF7; assay: Cytotoxicity against human MCF7 cells assessed as reduction in cell viability by MTT assay; assay type: functional, cell-based
[6] = test system: HeLa; assay: Cytotoxicity against human HeLa cells assessed as reduction in cell viability by MTT assay; assay type: functional, cell-based
[7] = test system: HepG2; assay: Cytotoxicity against human HepG2 cells assessed as reduction in cell viability by MTT assay; assay type: functional, cell-based
[8] = test system: L02; assay: Cytotoxicity against human L02 cells assessed as reduction in cell viability by MTT assay; assay type: cell-based
[9] = test system: A-427; assay: Induction of apoptosis in human A-427 cells assessed as late apoptotic cells at 7.5 uM measured after 24 hrs by Annexin V-FITC/propidium iodide staining based flow cytometric analysis (reference value: 3.59%); assay type: functional
[10] = test system: A-427; assay: Induction of apoptosis in human A-427 cells assessed as late apoptotic cells at 5 uM measured after 24 hrs by Annexin V-FITC/propidium iodide staining based flow cytometric analysis (reference value: 3.59%); assay type: functional
[11] = test system: A-427; assay: Induction of apoptosis in human A-427 cells assessed as late apoptotic cells at 2.5 uM measured after 24 hrs by Annexin V-FITC/propidium iodide staining based flow cytometric analysis (reference value: 3.59%); assay type: functional
[12] = test system: A-427; assay: Induction of apoptosis in human A-427 cells assessed as early apoptotic cells at 7.5 uM measured after 24 hrs by Annexin V-FITC/propidium iodide staining based flow cytometric analysis (reference value: 4.75%); assay type: functional
[13] = test system: A-427; assay: Induction of apoptosis in human A-427 cells assessed as early apoptotic cells at 5 uM measured after 24 hrs by Annexin V-FITC/propidium iodide staining based flow cytometric analysis (reference value: 4.75%); assay type: functional
[14] = test system: A-427; assay: Induction of apoptosis in human A-427 cells assessed as early apoptotic cells at 2.5 uM measured after 24 hrs by Annexin V-FITC/propidium iodide staining based flow cytometric analysis (reference value: 4.75%); assay type: functional
[15] = test system: MCF7; assay: Induction of apoptosis in human MCF7 cells assessed as late apoptotic cells at 10 uM measured after 24 hrs by Annexin V-FITC/propidium iodide staining based flow cytometric analysis (reference value: 1.19%); assay type: functional
[16] = test system: MCF7; assay: Induction of apoptosis in human MCF7 cells assessed as late apoptotic cells at 7.5 uM measured after 24 hrs by Annexin V-FITC/propidium iodide staining based flow cytometric analysis (reference value: 1.19%); assay type: functional
[17] = test system: MCF7; assay: Induction of apoptosis in human MCF7 cells assessed as late apoptotic cells at 5 uM measured after 24 hrs by Annexin V-FITC/propidium iodide staining based flow cytometric analysis (reference value: 1.19%); assay type: functional
[18] = test system: MCF7; assay: Induction of apoptosis in human MCF7 cells assessed as early apoptotic cells at 10 uM measured after 24 hrs by Annexin V-FITC/propidium iodide staining based flow cytometric analysis (reference value: 3.07%); assay type: functional
[19] = test system: MCF7; assay: Induction of apoptosis in human MCF7 cells assessed as early apoptotic cells at 7.5 uM measured after 24 hrs by Annexin V-FITC/propidium iodide staining based flow cytometric analysis (reference value: 3.07%); assay type: functional
[20] = test system: MCF7; assay: Induction of apoptosis in human MCF7 cells assessed as early apoptotic cells at 5 uM measured after 24 hrs by Annexin V-FITC/propidium iodide staining based flow cytometric analysis (reference value: 3.07%); assay type: functional
[21] = test system: A-427; assay: Cell cycle arrest in human A-427 cells assessed as accumulation at G2/M phase at 6 uM measured after 24 hrs by PI staining based flow cytometry (reference value: 13.59%); assay type: functional
[22] = test system: A-427; assay: Cell cycle arrest in human A-427 cells assessed as accumulation at S phase at 6 uM measured after 24 hrs by PI staining based flow cytometry (reference value: 25.84%); assay type: functional
[23] = test system: A-427; assay: Cell cycle arrest in human A-427 cells assessed as accumulation at G0/G1 phase at 6 uM measured after 24 hrs by PI staining based flow cytometry (reference value: 60.57%); assay type: functional
[24] = test system: A-427; assay: Cell cycle arrest in human A-427 cells assessed as accumulation at G2/M phase at 4 uM measured after 24 hrs by PI staining based flow cytometry (reference value: 13.59%); assay type: functional
[25] = test system: A-427; assay: Cell cycle arrest in human A-427 cells assessed as accumulation at S phase at 4 uM measured after 24 hrs by PI staining based flow cytometry (reference value: 25.84%); assay type: functional
[26] = test system: A-427; assay: Cell cycle arrest in human A-427 cells assessed as accumulation at G0/G1 phase at 4 uM measured after 24 hrs by PI staining based flow cytometry (reference value: 60.57%); assay type: functional
[27] = test system: A-427; assay: Cell cycle arrest in human A-427 cells assessed as accumulation at G2/M phase at 2 uM measured after 24 hrs by PI staining based flow cytometry (reference value: 13.59%); assay type: functional
[28] = test system: A-427; assay: Cell cycle arrest in human A-427 cells assessed as accumulation at S phase at 2 uM measured after 24 hrs by PI staining based flow cytometry (reference value: 25.84%); assay type: functional
[29] = test system: A-427; assay: Cell cycle arrest in human A-427 cells assessed as accumulation at G0/G1 phase at 2 uM measured after 24 hrs by PI staining based flow cytometry (reference value: 60.57%); assay type: functional
[30] = test system: MCF7; assay: Cell cycle arrest in human MCF7 cells assessed as accumulation at G2/M phase at 10 uM measured after 24 hrs by PI staining based flow cytometry (reference value: 18.9%); assay type: functional
[31] = test system: MCF7; assay: Cell cycle arrest in human MCF7 cells assessed as accumulation at S phase at 10 uM measured after 24 hrs by PI staining based flow cytometry (reference value: 9.43%); assay type: functional
[32] = test system: MCF7; assay: Cell cycle arrest in human MCF7 cells assessed as accumulation at G0/G1 phase at 10 uM measured after 24 hrs by PI staining based flow cytometry (reference value: 61.67%); assay type: functional
[33] = test system: MCF7; assay: Cell cycle arrest in human MCF7 cells assessed as accumulation at G2/M phase at 7.5 uM measured after 24 hrs by PI staining based flow cytometry (reference value: 18.9%); assay type: functional
[34] = test system: MCF7; assay: Cell cycle arrest in human MCF7 cells assessed as accumulation at S phase at 7.5 uM measured after 24 hrs by PI staining based flow cytometry (reference value: 9.43%); assay type: functional
[35] = test system: MCF7; assay: Cell cycle arrest in human MCF7 cells assessed as accumulation at G0/G1 phase at 7.5 uM measured after 24 hrs by PI staining based flow cytometry (reference value: 61.67%); assay type: functional
[36] = test system: MCF7; assay: Cell cycle arrest in human MCF7 cells assessed as accumulation at G2/M phase at 5 uM measured after 24 hrs by PI staining based flow cytometry (reference value: 18.9%); assay type: functional
[37] = test system: MCF7; assay: Cell cycle arrest in human MCF7 cells assessed as accumulation at S phase at 5 uM measured after 24 hrs by PI staining based flow cytometry (reference value: 9.43%); assay type: functional
[38] = test system: MCF7; assay: Cell cycle arrest in human MCF7 cells assessed as accumulation at G0/G1 phase at 5 uM measured after 24 hrs by PI staining based flow cytometry (reference value: 61.67%); assay type: functional

Work on CC1=C[C@@H]2/C=C/C[C@H](C)CC(=O)/C=C\C(=O)[C@]23C(=O)N[C@@H](Cc2c[nH]c4ccccc24)[C@@H]3[C@@H]1C yielded a pIC50 [1] of 5.10, a pIC50 [2] of 5.18 and a pIC50 [3] of 4.97. It also gave a pIC50 [4] of 5.09, a pIC50 [5] of 5.14 and a pIC50 [6] of 5.08. The pIC50 [7] was 5.02, the pIC50 [8] was 4.45 and the Activity [9] was 32.81%. It also gave an Activity [10] of 23.7%, an Activity [11] of 17.54% and an Activity [12] of 27.61%. For the same compound, the Activity [13] was 23.77%, the Activity [14] was 12.11% and the Activity [15] was 9.17%. The Activity [16] was 7.41%, the Activity [17] was 7.3% and the Activity [18] was 28.62%. For the same compound, the Activity [19] was 25.77%, the Activity [20] was 18.98% and the Activity [21] was 50.04%. The Activity [22] was 22.56%, the Activity [23] was 27.41% and the Activity [24] was 44.26%. It also gave an Activity [25] of 21.18%, an Activity [26] of 34.56% and an Activity [27] of 34.67%. For the same compound, the Activity [28] was 20.39%, the Activity [29] was 44.94% and the Activity [30] was 60.73%. It also gave an Activity [31] of 12.31%, an Activity [32] of 26.96% and an Activity [33] of 51.12%. It also gave an Activity [34] of 13.87%, an Activity [35] of 35% and an Activity [36] of 48.62%. For the same compound, the Activity [37] was 13.57% and the Activity [38] was 37.81%.
